In this assay the target is T1, VcINDY WT (Vibrio cholerae, UniProt Q9KNE0).
T1 construct: gene VC_A0025
Kind of assay: biochemical.

Each structure is given as a SMILES string.

On to `O=C(O)CCC(=O)O` [succinate], for which the Kd was found to be 4.3 ± 1.5 mM.

As usually defined, the Kd is the free concentration of one partner at which half of the binding sites on the other are occupied at equilibrium, for simple one-to-one binding.

The values above are taken from article PMC7939474 (The Journal of Biological Chemistry, 2021).
